From US9375002B2, “5-aminopyrimidine derivatives and use thereof for combating undesired plant growth” (BAYER INTELLECTUAL PROPERTY GMBH, priority 2012, dated 2016)

What was measured:
Stellaria media = assay: Post-emergence herbicidal effect; type: in vivo; conditions: 1280 g/ha, visual rating after about 3 weeks
Experimental: (§1) STEME: Stellaria media VERPE: Veronica persica 2. Post-Emergence Herbicidal Effect and Crop Plant Compatibility Seeds of monocotyledonous and dicotyledonous weed and crop plants are placed in sandy loam in wood-fiber pots, covered with soil and cultivated in a greenhouse under good growth conditions. 2 to 3 weeks after sowing, the test plants are treated at the one-leaf stage. The compounds according to the invention, formulated in the form of wettable powders (WP) or as emulsion concentrates (EC), are then sprayed as aqueous suspension or emulsion at a water application rate of 600 to 800 I/ha (converted) with the addition of 0.2% of wetting agent onto the green parts of the plants. After the test plants have been kept in the greenhouse under optimum growth conditions for about 3 weeks, the activity of the preparations is rated visually in comparison to untreated controls (herbicidal activity in percent (%): 100% activity=the plants have died, 0% activity=like control plants).

[1] = logp (HCOOH), physicochemical characterization; conditions: HCOOH
Echinochloa crus-galli = assay: Post-emergence herbicidal effect; type: in vivo; conditions: 1280 g/ha, visual rating after about 3 weeks
Experimental: as §1, with “AMARE: Amaranthus retroflexus ECHCG: Echinochloa crus-galli” for “STEME: Stellaria media VERPE: Veronica persica”

Matricaria inodora = assay: Pre-emergence herbicidal effect; type: in vivo; conditions: 1280 g/ha, visual assessment after 3 weeks
Description: (§2) 1. Pre-Emergence Herbicidal Effect and Crop Plant Compatibility Seeds of monocotyledonous and dicotyledonous weed plants and crop plants are placed in wood-fiber pots in sandy loam and covered with soil. The inventive compounds, formulated in the form of wettable powders (WP) or as emulsion concentrates (EC), are then applied to the surface of the covering soil as an aqueous suspension or emulsion at a water application rate of 600 to 800 I/ha (converted) with addition of 0.2% wetting agent. After the treatment, the pots are placed in a greenhouse and kept under good growth conditions for the test plants. The damage to the test plants is assessed visually after a test period of 3 weeks by comparison with untreated controls (herbicidal activity in percent (%): 100% action=the plants have died, 0% action=like control plants). LOLMU: Lolium multiflorum MATIN: Matricaria inodora

Lolium multiflorum = assay: Pre-emergence herbicidal effect; type: in vivo; conditions: 1280 g/ha, visual assessment after 3 weeks
Description: as §2

Viola tricolor = assay: Post-emergence herbicidal effect; type: in vivo; conditions: 1280 g/ha, visual rating after about 3 weeks
Experimental: as §1, with “VIOTR: Viola tricolor” for “STEME: Stellaria media VERPE: Veronica persica”

Veronica persica = assay: Post-emergence herbicidal effect; type: in vivo; conditions: 1280 g/ha, visual rating after about 3 weeks
Experimental: as §1

Amaranthus retroflexus = assay: Post-emergence herbicidal effect; type: in vivo; conditions: 1280 g/ha, visual rating after about 3 weeks
Experimental: as §1, with “AMARE: Amaranthus retroflexus ECHCG: Echinochloa crus-galli” for “STEME: Stellaria media VERPE: Veronica persica”

In the case of `CCc1ccc2c(c1)C(Nc1cnc(S(C)(=O)=O)nc1)CCO2` (racemic) [compound 65], the “herbicidal activity STEME” value (Stellaria media) is reported as 90%, the “logp (HCOOH)” value [1] is reported as “wax-like; logp (HCOOH): 2.54; 1H-NMR (CDCl3, 400 MHZ, δ in ppm): 1.20 (t, 3H,” and the “herbicidal activity ECHCG” value (Echinochloa crus-galli) is reported as 100%. For the same compound, the “herbicidal activity MATIN” value (Matricaria inodora) was 100% and the “herbicidal activity LOLMU” value (Lolium multiflorum) was 90%.
With `CCc1ccc2c(c1)C(Nc1cnc(S(C)(=O)=O)nc1C(=O)O)CCO2` (racemic) [compound 68] the “herbicidal activity VIOTR” value (Viola tricolor) was 80%, the “herbicidal activity ECHCG” value (Echinochloa crus-galli) was 90% and the “herbicidal activity MATIN” value (Matricaria inodora) was 100%. For the same compound, the “herbicidal activity LOLMU” value (Lolium multiflorum) was 90%.
With `Cc1ccc2c(c1)[C@H](Nc1cnc(S(C)(=O)=O)nc1)[C@@H](C)C2` [compound 134] the “herbicidal activity VIOTR” value (Viola tricolor) was 90%, the “herbicidal activity VERPE” value (Veronica persica) was 90% and the “herbicidal activity STEME” value (Stellaria media) was 100%. The “herbicidal activity AMARE” value (Amaranthus retroflexus) was 80%, the “herbicidal activity ECHCG” value (Echinochloa crus-galli) was 90% and the “herbicidal activity MATIN” value (Matricaria inodora) was 100%. The “herbicidal activity LOLMU” value (Lolium multiflorum) was 100%.
